Measured values as given in ChEMBL document CHEMBL5154646, “Structure-guided optimization of 1H-imidazole-2-carboxylic acid derivatives affording potent VIM-Type metallo-β-lactamase inhibitors” (Eur J Med Chem, 2022).
Activity calls are given as the source filed them. The rule behind the calls is not given here.

Experiments:
Escherichia coli [1] = assay: Bactericidal activity against Escherichia coli C1580 expressing VIM-2 assessed as induction of bacterial ultrastructural changes by measuring cellular debris at 20 ug/ml incubated for 1 hr in presence of meropenem by transmission electron microscopy; type: functional, organism-based; details: dose 20.0 µg/ml
[2] = Inhibition of bacterial VIM-2 (27 to 266 residues) expressed in Escherichia coli Transetta (DE3) using FC-5 as substrate preincubated with enzyme for 10 mins followed by substrate addition by fluorescence based analysis; set-up: species or system Bacteria
Pseudomonas aeruginosa [3] = assay: Potentiation of meropenem-induced antibacterial activity against Pseudomonas aeruginosa 5621 expressing VIM-2 assessed as fold reduction in meropenem MIC at 100 ug/ml incubated for 18 to 20 hrs by CLSI based broth microtiter dilution method; type: functional; details: dose 100 µg/ml; time 18-20 hrs
Pseudomonas aeruginosa [4] = assay: Potentiation of meropenem-induced antibacterial activity against Pseudomonas aeruginosa W35 expressing VIM-2 assessed as fold reduction in meropenem MIC at 100 ug/ml incubated for 18 to 20 hrs by CLSI based broth microtiter dilution method; type: functional; details: dose 100 µg/ml; time 18-20 hrs
Escherichia coli [5] = assay: Potentiation of meropenem-induced antibacterial activity against Escherichia coli C1541 expressing VIM-2 assessed as meropenem MIC at 10 ug/ml incubated for 18 to 20 hrs by CLSI based broth microtiter dilution method (reference value: 16 ug/ml); type: functional; details: dose 10 µg/ml, time 18-20 hrs
[6] = Toxicity in ICR mouse assessed as effect on histological architecture of kidney at 500 to 2000 mg/kg, ip administered for 14 days by hematoxylin and eosin staining based histopathological assay; type: organism-based; details: in vivo, 336 h, dose 500-2000 mg/kg, time 14 day
[7] = Solubility of the compound in water; type: physicochemical
[8] = Toxicity in ICR mouse assessed as change in behavior at 500 to 2000 mg/kg, ip administered for 14 days; type: organism-based; details: in vivo, 336 h, dose 500-2000 mg/kg, time 14 day
Escherichia coli [9] = assay: Synergistic antibacterial activity against Escherichia coli C1541 expressing VIM-2 assessed as fractional inhibitory concentration index incubated for 18 to 20 hrs in presence of meropenem and 100 uM of zinc sulfate by checkerboard microdilution assay; type: functional; details: time 18-20 hrs
[10] = Toxicity in ICR mouse assessed as change in overall appearance at 500 to 2000 mg/kg, ip administered for 14 days; type: organism-based; details: in vivo, 336 h, dose 500-2000 mg/kg, time 14 day
[11] = Toxicity in ICR mouse assessed as effect on histological architecture of lungs at 500 to 2000 mg/kg, ip administered for 14 days by hematoxylin and eosin staining based histopathological assay; type: organism-based; details: in vivo, 336 h, dose 500-2000 mg/kg, time 14 day
Pseudomonas aeruginosa [12] = assay: Potentiation of meropenem-induced antibacterial activity against Pseudomonas aeruginosa W35 expressing VIM-2 assessed as meropenem MIC at 100 ug/ml incubated for 18 to 20 hrs in presence of meropenem by CLSI based broth microtiter dilution method (reference value: 64 ug/ml); type: functional; details: dose 100 µg/ml, time 18-20 hrs
[13] = Inhibition of bacterial IMP-1 (1 to 246 residues) expressed in Escherichia coli Transetta (DE3) using FC-5 as substrate preincubated with enzyme for 10 mins followed by substrate addition by fluorescence based analysis; set-up: species or system Bacteria

In the case of `O=C(O)c1nccn1Cc1ccncc1`, the Activity (Escherichia coli [1]) is reported as “Active”, the IC50 [2] is reported as 560 nM and the “fold change (FC)” value (Pseudomonas aeruginosa [3]) is reported as 2. For the same molecule, the “fold change (FC)” value (Pseudomonas aeruginosa [4]) was 16, the MIC (Escherichia coli [5]) was < 0.25 µg/mL and the Activity [6] was “Non-Toxic”. The solubility [7] was > 20 mg/mL, the Activity [8] was “Non-Toxic” and the “fractional inhibitory concentration index (FICI)” value (Escherichia coli [9]) was 0.05. For the same molecule, the Activity [10] was “Non-Toxic”, the Activity [11] was “Non-Toxic” and the MIC (Pseudomonas aeruginosa [12]) was 4 µg/mL. The IC50 [13] was > 300 µM.
